How the values were obtained:
Assay type in all cases: functional
[1] = Cytotoxicity against human OVCAR5 cells after 24 hrs by SRB assay; conditions: OVCAR-5, 24 h
[2] = Cytotoxicity against human IGROV1 cells assessed as cell growth at 10^-8 M after 24 hrs by SRB assay; conditions: IGROV-1, 24 h, read-out: Activity
[3] = tested on: NCI-H226; test: Cytotoxicity against human NCI-H226 cells assessed as cell growth at 10^-8 M after 24 hrs by SRB assay; conditions: NCI-H226, 24 h, read-out: Activity
[4] = Cytotoxicity against human MOLT4 cells assessed as cell growth at 10^-4 M after 24 hrs by SRB assay; conditions: MOLT-4, 24 h, read-out: Activity
[5] = tested on: A498; test: Cytotoxicity against human A498 cells assessed as cell growth at 10^-7 M after 24 hrs by SRB assay; conditions: A498, 24 h, read-out: Activity
[6] = tested on: T47D; test: Cytotoxicity against human T47D cells assessed as cell growth at 10^-8 M after 24 hrs by SRB assay; conditions: read-out: Activity
[7] = Cytotoxicity against human COLO205 cells assessed as cell growth at 10^-6 M after 24 hrs by SRB assay; conditions: COLO 205, 24 h, read-out: Activity
[8] = tested on: MDA-MB-435; test: Cytotoxicity against human MDA-MB-435 cells assessed as cell growth at 10^-6 M after 24 hrs by SRB assay; conditions: MDA-MB-435, 24 h, read-out: Activity
[9] = tested on: MCF7; test: Cytotoxicity against human MCF7 cells after 24 hrs by SRB assay; conditions: MCF7, 24 h
[10] = Cytotoxicity against human HCT116 cells assessed as cell growth at 10^-8 M after 24 hrs by SRB assay; conditions: HCT-116, 24 h, read-out: Activity
[11] = tested on: SK-MEL-2; test: Cytotoxicity against human SK-MEL-2 cells assessed as cell growth at 10^-5 M after 24 hrs by SRB assay; conditions: SK-MEL-2, 24 h, read-out: Activity
[12] = Cytotoxicity against human UACC257 cells after 24 hrs by SRB assay; conditions: UACC-257, 24 h
[13] = Cytotoxicity against human LOXIMVI cells assessed as cell growth at 10^-4 M after 24 hrs by SRB assay; conditions: LOX IMVI, read-out: Activity
[14] = tested on: K562; test: Cytotoxicity against human K562 cells assessed as cell growth at 10^-4 M after 24 hrs by SRB assay; conditions: K562, 24 h, read-out: Activity
[15] = tested on: SR; test: Cytotoxicity against human SR cells assessed as cell growth at 10^-6 M after 24 hrs by SRB assay; conditions: read-out: Activity
[16] = Cytotoxicity against human HCT15 cells assessed as cell growth at 10^-6 M after 24 hrs by SRB assay; conditions: HCT-15, 24 h, read-out: Activity
[17] = Cytotoxicity against human HCT116 cells assessed as cell growth at 10^-5 M after 24 hrs by SRB assay; conditions: HCT-116, 24 h, read-out: Activity
[18] = tested on: K562; test: Cytotoxicity against human K562 cells after 24 hrs by SRB assay; conditions: K562, 24 h
[19] = Cytotoxicity against human OVCAR3 cells assessed as cell growth at 10^-6 M after 24 hrs by SRB assay; conditions: OVCAR-3, 24 h, read-out: Activity
[20] = Cytotoxicity against human DU145 cells after 24 hrs by SRB assay; conditions: DU-145, 24 h
[21] = tested on: NCI-H23; test: Cytotoxicity against human NCI-H23 cells assessed as cell growth at 10^-4 M after 24 hrs by SRB assay; conditions: NCI-H23, 24 h, read-out: Activity
[22] = Cytotoxicity against human HCC2998 cells assessed as cell growth at 10^-7 M after 24 hrs by SRB assay; conditions: HCC 2998, 24 h, read-out: Activity
[23] = tested on: NCI-H522; test: Cytotoxicity against human NCI-H522 cells assessed as cell growth at 10^-4 M after 24 hrs by SRB assay; conditions: NCI-H522, 24 h, read-out: Activity
[24] = Cytotoxicity against human HOP62 cells assessed as cell growth at 10^-6 M after 24 hrs by SRB assay; conditions: HOP-62, 24 h, read-out: Activity
[25] = tested on: U-251; test: Cytotoxicity against human U251 cells assessed as cell growth at 10^-8 M after 24 hrs by SRB assay; conditions: U-251, 24 h, read-out: Activity
[26] = Cytotoxicity against human Hs 578T cells after 24 hrs by SRB assay
[27] = Cytotoxicity against human LOXIMVI cells assessed as cell growth at 10^-7 M after 24 hrs by SRB assay; conditions: LOX IMVI, read-out: Activity
[28] = Cytotoxicity against human SKOV3 cells assessed as cell growth at 10^-5 M after 24 hrs by SRB assay; conditions: SK-OV-3, 24 h, read-out: Activity
[29] = Cytotoxicity against human OVCAR5 cells assessed as cell growth at 10^-5 M after 24 hrs by SRB assay; conditions: OVCAR-5, 24 h, read-out: Activity
[30] = Cytotoxicity against human SF268 cells assessed as cell growth at 10^-4 M after 24 hrs by SRB assay; conditions: SF-268, 24 h, read-out: Activity
[31] = Cytotoxicity against human UACC257 cells assessed as cell growth at 10^-4 M after 24 hrs by SRB assay; conditions: UACC-257, 24 h, read-out: Activity
[32] = tested on: MCF7; test: Cytotoxicity against human MCF7 cells assessed as cell growth at 10^-7 M after 24 hrs by SRB assay; conditions: MCF7, 24 h, read-out: Activity
[33] = Cytotoxicity against human Caki1 cells after 24 hrs by SRB assay; conditions: CAKI-1, 24 h
[34] = read-out: LC50 (the source's name)
[35] = read-out: pLC50 (the source's name) (converted)

O=C(Nc1cc(-c2cccnc2)nc(NCCCN2CCOCC2)n1)c1cc(Br)cc(C(F)(F)F)c1
GI50 ([1]; read-out: GI50): 6.33 µM | CC50 [1, 34]: 69.1 µM | TGI ([1]; read-out: TGI): 23.5 µM | GI50 ([1]; read-out: pGI50 (converted)): 6.31 µM | CC50 [1, 35]: 69.2 µM | TGI ([1]; read-out: pTGI (converted)): 23.4 µM | growth at 0.01 µM [2]: 103% | growth at 0.01 µM [3]: 92% | growth at 100 µM [4]: -67% | growth at 0.1 µM [5]: 92% | growth at 0.01 µM [6]: 91% | growth at 1 µM [7]: 92% | growth at 1 µM [8]: 90% | GI50 ([9]; read-out: GI50): 2170 nM | CC50 [9, 34]: 44.8 µM | TGI ([9]; read-out: TGI): 9.22 µM | GI50 ([9]; read-out: pGI50 (converted)): 2240 nM | CC50 [9, 35]: 44.7 µM | TGI ([9]; read-out: pTGI (converted)): 9.12 µM | growth at 0.01 µM [10]: 102% | growth at 10 µM [11]: 27% | GI50 ([12]; read-out: GI50): 2100 nM | CC50 [12, 34]: 6.8 µM | TGI ([12]; read-out: TGI): 3.78 µM | GI50 ([12]; read-out: pGI50 (converted)): 2090 nM | CC50 [12, 35]: 6.76 µM | TGI ([12]; read-out: pTGI (converted)): 3.8 µM | growth at 100 µM [13]: -93% | growth at 100 µM [14]: -7% | growth at 1 µM [15]: 85% | growth at 1 µM [16]: 82% | growth at 10 µM [17]: -44% | GI50 ([18]; read-out: GI50): 2810 nM | CC50 [18, 34]: > 100 µM | TGI ([18]; read-out: TGI): 21.7 µM | GI50 ([18]; read-out: pGI50 (converted)): 2820 nM | CC50 [18, 35]: > 100 µM | TGI ([18]; read-out: pTGI (converted)): 21.9 µM | growth at 1 µM [19]: 100% | GI50 ([20]; read-out: GI50): 6.7 µM | CC50 [20, 34]: 43.7 µM | TGI ([20]; read-out: TGI): 19.1 µM | GI50 ([20]; read-out: pGI50 (converted)): 6.76 µM | CC50 [20, 35]: 43.7 µM | TGI ([20]; read-out: pTGI (converted)): 19.1 µM | growth at 100 µM [21]: -85% | growth at 0.1 µM [22]: 100% | growth at 100 µM [23]: -82% | growth at 1 µM [24]: 88% | growth at 0.01 µM [25]: 97% | GI50 ([26]; read-out: GI50): 2710 nM | CC50 [26, 34]: > 100 µM | TGI ([26]; read-out: TGI): 8.51 µM | GI50 ([26]; read-out: pGI50 (converted)): 2690 nM | CC50 [26, 35]: 100 µM | TGI ([26]; read-out: pTGI (converted)): 8.51 µM | growth at 0.1 µM [27]: 92% | growth at 10 µM [28]: 42% | growth at 10 µM [29]: 40% | growth at 100 µM [30]: -88% | growth at 100 µM [31]: -93% | growth at 0.1 µM [32]: 89% | GI50 ([33]; read-out: GI50): 2530 nM | CC50 [33, 34]: 32.8 µM | TGI ([33]; read-out: TGI): 10.7 µM | GI50 ([33]; read-out: pGI50 (converted)): 2510 nM | CC50 [33, 35]: 33.1 µM | TGI ([33]; read-out: pTGI (converted)): 10.7 µM

Source: ChEMBL document CHEMBL3774345, “Synthesis of new diarylamides with pyrimidinyl pyridine scaffold and evaluation of their anti-proliferative effect on cancer cell lines” (Bioorg Med Chem Lett, 2016)
